Results on 20 compounds are retold here after US20260070922A1, “PYRAZOLE AND IMIDAZOLE DERIVATIVES AS DUAL OREXIN AND KAPPA-OPIOID RECEPTORS MODULATORS COMPOSITION, METHODS FOR TREATING NEUROLOGICAL AND PSYCHIATRIC DISORDERS” (HAGER BIOSCIENCES, LLC, priority 2022, published 2026).

Test [1] concerns the target T1, human orexin-2 receptor (OX2R) (Homo sapiens, UniProt O43614).
T1 construct: expressed in transfected cells; host or cells: CHO cells (G418 selection)
T1 sequence (O43614 1-444): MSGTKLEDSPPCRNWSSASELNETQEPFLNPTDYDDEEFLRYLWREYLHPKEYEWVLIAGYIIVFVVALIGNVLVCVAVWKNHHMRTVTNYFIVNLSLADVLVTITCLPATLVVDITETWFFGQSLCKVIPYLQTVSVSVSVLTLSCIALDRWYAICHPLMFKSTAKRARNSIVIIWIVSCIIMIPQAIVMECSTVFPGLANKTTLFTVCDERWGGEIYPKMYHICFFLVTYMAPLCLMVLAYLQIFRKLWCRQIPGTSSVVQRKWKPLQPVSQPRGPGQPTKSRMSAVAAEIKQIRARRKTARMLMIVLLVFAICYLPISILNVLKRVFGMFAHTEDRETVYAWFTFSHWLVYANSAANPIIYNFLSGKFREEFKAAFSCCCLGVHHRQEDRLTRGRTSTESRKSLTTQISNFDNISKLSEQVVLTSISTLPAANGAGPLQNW
The test can be described thus: In vitro orexin antagonism assay: intracellular calcium measurement (FLIPR), orexin-A 3 nM as agonist. The test is classed as cell-based. Particulars: for inhibition at 1 µM: read-out: OX2R, % Inh. @ 1 uM; for IC50: first value of IC50/Kb cell; for Kb: second value of IC50/Kb cell. An outline of the steps:
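Fluorescence peak on 3 nM orexin-A challenge, read by FLIPR and compared with vehicle, yields IC50 (geometric mean when repeated; may be normalized to an on-plate reference). Antagonists were added 120 min beforehand to fluo-4-loaded recombinant CHO cells expressing human OX1R or OX2R.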
On the technique in general: Calcium flux is commonly read through the fluorescence of an indicator in the cells.

Test [2] deals with T2, Orexin type 1 (OX1R) receptor (Homo sapiens, UniProt O43613).
T2 construct: expressed in transfected cells; host or cells: CHO cells (G418 selection)
T2 sequence (O43613 1-425): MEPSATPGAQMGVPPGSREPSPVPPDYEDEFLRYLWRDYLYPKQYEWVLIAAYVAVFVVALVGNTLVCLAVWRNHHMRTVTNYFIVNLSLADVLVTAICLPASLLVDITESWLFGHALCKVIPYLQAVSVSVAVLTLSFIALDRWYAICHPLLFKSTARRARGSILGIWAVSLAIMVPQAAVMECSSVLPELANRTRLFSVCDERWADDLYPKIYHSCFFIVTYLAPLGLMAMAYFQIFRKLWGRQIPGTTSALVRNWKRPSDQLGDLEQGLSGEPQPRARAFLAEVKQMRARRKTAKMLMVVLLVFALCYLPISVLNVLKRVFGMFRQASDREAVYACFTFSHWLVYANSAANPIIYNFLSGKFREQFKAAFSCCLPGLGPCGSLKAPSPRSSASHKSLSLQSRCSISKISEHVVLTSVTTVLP
The test is described as above. Particulars: for IC50: first value of IC50/Kb cell; for inhibition at 1 µM: read-out: OX1R, % Inh. @ 1 uM; for Kb: second value of IC50/Kb cell. The test is classed as cell-based. In outline: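 CHO cells expressing the human orexin receptor were loaded with 3 μM fluo-4 AM plus 5 mM probenecid, then exposed to antagonist for 120 min before 3 nM orexin-A (final) was added on a FLIPR.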

Test [3] has as its target T3, human k-opioid receptor (kOR) (Homo sapiens, UniProt P41145).
T3 construct: expressed in transfected cells; host or cells: RBL cells (membrane homogenates)
The test can be described thus: Human k-opioid (KOP) receptor (agonist radioligand [3H]U-69593) binding assay, transfected RBL cell membranes. Particulars: for inhibition at 1 µM: read-out: KOR % Inh. @ 1 uM. How it is done:
Human k-Opioid (KOP) Receptor (Agonist Radioligand) Binding Assay
Purpose: Evaluation of the affinity of compounds for the human k-opioid receptor in transfected RBL cells determined in a radioligand binding assay.
Experimental protocol: Cell membrane homogenates (about 80 μg protein) are incubated for 60 min at 22° C. with 0.5 nM [3H]U-69593 in the absence or presence of the test compound in a buffer containing 50 mM Tris-HCl (pH 7.4), 10 mM MgCl2 and 1 mM EDTA. Nonspecific binding is determined in the presence of 10 μM naloxone. Following incubation, the samples are filtered rapidly under vacuum through glass fiber filters ([…], Packard) presoaked with 0.3% PEI and rinsed several times with ice-cold 50 mM Tris-HCl using a 96-sample cell harvester (Unifilter, Packard). The filters are dried then counted for radioactivity in a scintillation counter (Topcount, Packard) using a scintillation cocktail (Microscint 0, Packard). The results are expressed as a percent inhibition of the control radioligand specific binding. The standard reference compound is U-50488, which is tested in each experiment at several concentrations to obtain a competition curve from which its IC50 is calculated.

T3 sequence (P41145 whole entry): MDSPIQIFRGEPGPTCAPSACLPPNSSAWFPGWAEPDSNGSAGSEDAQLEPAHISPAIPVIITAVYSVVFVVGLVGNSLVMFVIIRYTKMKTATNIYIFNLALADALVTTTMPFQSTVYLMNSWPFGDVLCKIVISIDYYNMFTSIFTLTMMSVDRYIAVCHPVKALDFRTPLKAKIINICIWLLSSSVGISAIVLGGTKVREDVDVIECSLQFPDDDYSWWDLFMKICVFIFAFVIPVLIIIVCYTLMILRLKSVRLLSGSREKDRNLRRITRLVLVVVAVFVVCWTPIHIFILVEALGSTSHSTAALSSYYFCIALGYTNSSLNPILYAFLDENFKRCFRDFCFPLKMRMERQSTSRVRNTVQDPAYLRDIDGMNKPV

The term IC50 denotes the concentration that inhibits the measured activity by half. The Kb is the equilibrium dissociation constant of an antagonist, usually derived from a functional assay. Take `O=C(c1c(-c2ccccc2)nn2c1COCC2)N1[C@@H]2CC[C@@H](C2)[C@H]1COc1ccc(C(F)(F)F)cn1` [Example 87]: the inhibition at 1 µM in test [1] was determined as 23%. Also, in test [2], the IC50 was 230 nM, the inhibition at 1 µM amounted to 78% and the Kb worked out at 49 nM. Moreover, the inhibition at 1 µM in test [3] was found to be 3%.

Consider `O=C(c1c(-c2ccccc2)nn2ccccc12)N1[C@@H]2CC[C@@H](C2)[C@H]1COc1ccc(C(F)(F)F)cn1` [Example 88], for which, in test [1], the concentration for half-maximal inhibition (IC50) is 360 nM, the inhibition at 1 µM came out at 66% and the Kb was 63 nM. Also, in test [2], the IC50 was 37 nM, the inhibition at 1 µM came out at 97% and the Kb was found to be 8 nM. Besides, the inhibition at 1 µM in test [3] was 22%.

On to `O=C(c1c(-c2ccccc2)nc2ccccn12)N1[C@@H]2CC[C@@H](C2)[C@H]1COc1ccc(C(F)(F)F)cn1` [Example 89], for which, in test [1], the inhibition at 1 µM was found to be 46%. In test [2], the IC50 is 80 nM, the inhibition at 1 µM came to 98% and the Kb was determined as 2 nM. The inhibition at 1 µM in test [3] came out at 11%.

As for `O=C(c1c(-c2ccccc2F)nn2ccccc12)N1CCC[C@H]1Cn1ccc(-c2ccc(F)cn2)n1` [Example 90], in test [1] (@ 1 uM), the “OX2R, % Inh. @ 1 uM” value was 84%. For the same compound, the IC50 is 15 nM in test [1] and 6 nM in test [2]. Besides, the Kb in test [1] stood at 3 nM; in test [2], 1 nM. Also, the “OX1R, % Inh. @ 1 uM” value in test [2] (@ 1 uM) is 99%. In addition, the “KOR % Inh. @ 1 uM” value in test [3] (@ 1 uM) amounted to 33%.

As to `O=C(c1nn2ccccc2c1-c1ccccc1)N1CCC[C@H]1Cn1ccc(-c2ccc(F)cn2)n1` [Example 111], in test [1], the IC50 is 43 nM, the inhibition at 1 µM worked out at 79% and the Kb came out at 8 nM. Further, in test [2], the IC50 was determined as 14 nM, the inhibition at 1 µM stood at 100% and the antagonist equilibrium constant (Kb) amounted to 3 nM. In addition, in test [3], the inhibition at 1 µM was 21%.

As for `O=C(c1nn2ccccc2c1-c1ccccc1)N1CC[C@H]1Cn1ccc(-c2ccc(F)cn2)n1` [Example 115], the inhibition at 1 µM in test [1] turned out to be 38%. For the same compound, in test [2], the IC50 amounted to 650 nM, the inhibition at 1 µM came out at 60% and the Kb was found to be 140 nM. In test [3], the inhibition at 1 µM was 51%.

With `O=C(c1nn2ccccc2c1-c1ccccc1)N1CCC[C@H]1Cc1nc(-c2ccc(F)cn2)no1` [Example 117], the IC50 is 150 nM in test [1] and 2 nM in test [2]. Moreover, the inhibition at 1 µM is 69% in test [1], 100% in test [2] and 19% in test [3]. In addition, the Kb in test [1] was 26 nM; in test [2], 0.3 nM.

In the case of `O=C(c1nc2ccccn2c1-c1ccccc1)N1CCC[C@H]1Cn1cc(-c2ccccn2)cn1` [Example 118], in test [1], the inhibition at 1 µM turned out to be 45%. In test [2], the IC50 came out at 5 nM, the inhibition at 1 µM amounted to 100% and the Kb was determined as 1 nM. Also, in test [3], the inhibition at 1 µM is 35%.

Turning to `O=C(c1nc2ccccn2c1-c1ccccc1)N1CCC[C@H]1Cn1ccc(-c2ccccn2)n1` [Example 119], in test [1], the inhibition at 1 µM was found to be 37%. In addition, in test [2], the IC50 came to 5 nM, the inhibition at 1 µM worked out at 100% and the Kb turned out to be 1 nM. Besides, the inhibition at 1 µM in test [3] was found to be 6%.

Regarding `O=C(c1c(-c2ccccc2)nn2ccccc12)N1CCC[C@H]1Cc1nc(-c2ccc(F)cn2)no1` [Example 120], in test [1], the IC50 worked out at 300 nM, the inhibition at 1 µM amounted to 63% and the Kb was found to be 52 nM. In test [2], the IC50 was 46 nM, the inhibition at 1 µM worked out at 80% and the Kb is 10 nM. Moreover, the inhibition at 1 µM in test [3] stood at 22%.

Regarding `O=C(c1nc2ccccn2c1-c1ccccc1)N1CCC[C@H]1Cn1cc(-c2ccc(F)cn2)cn1` [Example 122], in test [1], the inhibition at 1 µM is 51%. Further, in test [2], the IC50 turned out to be 10 nM, the inhibition at 1 µM was determined as 99% and the Kb was found to be 2 nM. Moreover, in test [3], the inhibition at 1 µM amounted to 15%.

For the compound `O=C(c1nc2ccccn2c1-c1ccccc1)N1[C@@H]2CC[C@@H](C2)[C@H]1COc1ccc(C(F)(F)F)cn1` [Example 125], the values for the IC50 in test [1] and in test [2] were 20 nM and 190 nM, respectively. Moreover, the values for the inhibition at 1 µM in test [1], in test [2] and in test [3] were 57%, 93% and 7%, respectively. Besides, the Kb in test [1] turned out to be 3 nM; in test [2] it was 41 nM.

On to `O=C(c1nc2ccccn2c1-c1ccccc1)N1[C@H](Cn2ccc(-c3ccc(F)cn3)n2)C[C@@H]2C[C@@H]21` [Example 126], for which the inhibition at 1 µM is 24% in test [1], 99% in test [2] and 10% in test [3]. The IC50 in test [2] was determined as 17 nM. Further, the Kb in test [2] was determined as 4 nM.

As for `O=C(c1nc2ccccn2c1-c1ccccc1)N1CCC[C@H]1Cc1nc(-c2ccc(F)cn2)no1` [Example 127], the results for the inhibition at 1 µM in test [1], in test [2] and in test [3] were 31%, 100% and 17%, respectively. In test [2], the IC50 is 5 nM. Moreover, the Kb in test [2] was determined as 1 nM.

Turning to `O=C(c1nc2ccccn2c1-c1ccccc1)N1CCC[C@H]1Cc1nc(-c2ccccn2)no1` [Example 128], the inhibition at 1 µM in test [1] was 17%. Also, in test [2], the IC50 is 7 nM, the inhibition at 1 µM is 100% and the antagonist equilibrium constant (Kb) is 1 nM. Moreover, the inhibition at 1 µM in test [3] is 19%.

As for `O=C(c1nn2c(c1-c1ccccc1)COCC2)N1CCC[C@H]1Cn1ccc(-c2ccccc2)n1` [Example 129], in test [1], the 50% inhibitory concentration (IC50) was determined as 240 nM, the inhibition at 1 µM worked out at 88% and the Kb was found to be 41 nM. Moreover, in test [2], the IC50 came to 6 nM, the inhibition at 1 µM was determined as 100% and the Kb was 1 nM. Also, the inhibition at 1 µM in test [3] stood at 7%.

As to `O=C(c1nn2c(c1-c1ccccc1)OCCC2)N1CCC[C@H]1Cn1ccc(-c2ccccc2)n1` [Example 130], in test [1], the IC50 amounted to 110 nM, the inhibition at 1 µM worked out at 98% and the Kb came out at 19 nM. In test [2], the IC50 is 9 nM, the inhibition at 1 µM was determined as 100% and the Kb was found to be 2 nM. Further, in test [3], the inhibition at 1 µM was found to be 53%.

As to `O=C(c1c(-c2ncccn2)nn2ccccc12)N1CCC[C@H]1Cn1ccc(-c2ccccc2)n1` [Example 131], in test [1], the IC50 was 68 nM, the inhibition at 1 µM came out at 91% and the Kb was found to be 12 nM. For the same compound, in test [2], the IC50 stood at 4 nM, the inhibition at 1 µM is 100% and the Kb was 1 nM. The inhibition at 1 µM in test [3] turned out to be 27%.

Consider `O=C(c1c(-c2ccccn2)nn2ccccc12)N1CCC[C@H]1Cn1ccc(-c2ccccc2)n1` [Example 132], for which, in test [1], the IC50 stood at 16 nM, the inhibition at 1 µM was determined as 98% and the Kb was determined as 3 nM. In test [2], the IC50 came out at 4 nM, the inhibition at 1 µM stood at 100% and the Kb came out at 1 nM. Besides, the inhibition at 1 µM in test [3] stood at 35%.

In the case of `O=C(c1c(-c2ccccc2)nn2cccnc12)N1CCC[C@H]1Cn1ccc(-c2ccccc2)n1` [Example 133], in test [1], the IC50 was found to be 83 nM, the inhibition at 1 µM turned out to be 81% and the Kb is 14 nM. In test [2], the IC50 was 4 nM, the inhibition at 1 µM worked out at 99% and the Kb came out at 1 nM. Moreover, the inhibition at 1 µM in test [3] was 44%.
